Laboratory results published in ChEMBL document CHEMBL1201862, “PubChem BioAssay data set” (2004).
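How tested: cells in 96-well plates exposed to compound for 48 hours at five concentrations. Abbreviation: GI50, concentration required for 50% inhibition of growth.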 The source made the active and inactive calls. Rule as the data show it: active = GI50 up to about 1.1 µM and inactive = higher.

Tests used:
Test in all cases: growth of human tumour cells (NCI), 48 h
[1] = test system: CCRF-CEM
[2] = test system: HCT-116
[3] = test system: IGROV-1
[4] = test system: SNB-19
[5] = test system: KM-20L2
[6] = test system: COLO 205
[7] = test system: SK-MEL-28
[8] = test system: SNB-75
[9] = test system: KM12
[10] = test system: NCI-H522
[11] = test system: CAKI-1
[12] = test system: SF-539
[13] = test system: OVCAR-3
[14] = test system: OVCAR-5
[15] = test system: MOLT-4
[16] = test system: LOX IMVI
[17] = test system: NCI-H226
[18] = test system: DU-145
[19] = test system: MDA-N
[20] = test system: NCI/ADR-RES

SMILES	GI50 [1]	GI50 [2]	GI50 [3]	GI50 [4]	GI50 [5]	GI50 [6]	GI50 [7]	GI50 [8]	GI50 [9]	GI50 [10]	GI50 [11]	GI50 [12]	GI50 [13]	GI50 [14]	GI50 [15]	GI50 [16]	GI50 [17]	GI50 [18]	GI50 [19]	GI50 [20]
COC(=O)C1(C)NCCc2c1[nH]c1ccccc21 (stereo not given)	> 100 µM (inactive)	> 100 µM (inactive)	> 100 µM (inactive)	> 100 µM (inactive)	> 100 µM (inactive)	> 100 µM (inactive)	> 100 µM (inactive)	16.8 µM (inactive)	> 100 µM (inactive)	> 100 µM (inactive)	> 100 µM (inactive)	> 100 µM (inactive)	> 100 µM (inactive)	> 100 µM (inactive)	> 100 µM (inactive)					
C=C1CCC(OC(C)=O)C2(C)C(OC(C)=O)CC3OC3(C)C2C(OC(C)=O)C2C(C)C(=O)OC2C1Cl (stereo not given)	> 100 µM (inactive)	> 100 µM (inactive)	> 100 µM (inactive)	> 100 µM (inactive)	> 100 µM (inactive)	> 100 µM (inactive)	> 100 µM (inactive)	> 100 µM (inactive)	> 100 µM (inactive)		> 100 µM (inactive)	> 100 µM (inactive)	> 100 µM (inactive)	> 100 µM (inactive)	> 100 µM (inactive)	> 100 µM (inactive)	> 100 µM (inactive)			
Cc1nc2ccccn2c1/N=N/c1ccc(C(=O)NN)cc1	4.59 µM (inactive)		21.7 µM (inactive)	49.5 µM (inactive)	92.9 µM (inactive)	51.2 µM (inactive)	80.9 µM (inactive)				22.2 µM (inactive)	77.3 µM (inactive)	45 µM (inactive)	36.1 µM (inactive)	5.02 µM (inactive)	26.3 µM (inactive)	25.5 µM (inactive)			
C[S+]=c1sc2ccccc2s1	> 100 µM (inactive)	> 100 µM (inactive)	> 100 µM (inactive)	> 100 µM (inactive)	> 100 µM (inactive)	> 100 µM (inactive)		> 100 µM (inactive)	> 100 µM (inactive)	> 100 µM (inactive)	> 100 µM (inactive)	> 100 µM (inactive)		> 100 µM (inactive)	> 100 µM (inactive)	> 100 µM (inactive)	> 100 µM (inactive)			
CC(=O)OC1(C)C(=O)OC/C2=C/CN(C)CCC(OC(=O)C(O)(C(C)Cl)CC1C)C2=O.c1ccccc1 (stereo not given)	> 100 µM (inactive)	> 100 µM (inactive)	> 100 µM (inactive)	> 100 µM (inactive)		> 100 µM (inactive)	> 100 µM (inactive)	> 100 µM (inactive)	> 100 µM (inactive)	> 100 µM (inactive)	> 100 µM (inactive)	> 100 µM (inactive)	> 100 µM (inactive)	> 100 µM (inactive)	> 100 µM (inactive)	> 100 µM (inactive)	> 100 µM (inactive)	> 100 µM (inactive)	> 100 µM (inactive)	> 100 µM (inactive)
COc1ccc(C(=O)C(C(=O)CC(=O)Nc2cccc(C(F)(F)F)c2)c2ccc(OC)cc2)cc1 (stereo not given)	> 100 µM (inactive)	> 100 µM (inactive)	> 100 µM (inactive)	> 100 µM (inactive)	> 100 µM (inactive)	> 100 µM (inactive)	> 100 µM (inactive)	30.8 µM (inactive)	> 100 µM (inactive)	> 100 µM (inactive)	> 100 µM (inactive)	> 100 µM (inactive)	> 100 µM (inactive)	7.73 µM (inactive)	> 100 µM (inactive)		> 100 µM (inactive)			
CCc1ccccc1N1C(=O)C(=O)C(c2nc3ccccc3s2)C(=O)C1=O	37.6 µM (inactive)	48.3 µM (inactive)	> 100 µM (inactive)	> 100 µM (inactive)	> 100 µM (inactive)		> 100 µM (inactive)		> 100 µM (inactive)	> 100 µM (inactive)	> 100 µM (inactive)	> 100 µM (inactive)	80.4 µM (inactive)	> 100 µM (inactive)	42.2 µM (inactive)	> 100 µM (inactive)	> 100 µM (inactive)			
COC(=O)CCC(NC(=S)N/N=C(\C)c1cnccn1)C(=O)OC (stereo not given)	16.8 µM (inactive)	33.9 µM (inactive)	69.8 µM (inactive)	> 100 µM (inactive)	38.6 µM (inactive)	34.4 µM (inactive)	55.8 µM (inactive)	85.3 µM (inactive)	70.6 µM (inactive)	27 µM (inactive)		62.5 µM (inactive)	34.5 µM (inactive)	21 µM (inactive)	15.7 µM (inactive)	31.6 µM (inactive)	44.5 µM (inactive)			
N#CC(C#N)=c1ccc(=C2N3CCCC3CN2C23CC4CC(CC(C4)C2)C3)cc1 (stereo not given)	> 100 µM (inactive)	> 100 µM (inactive)	> 100 µM (inactive)	84.1 µM (inactive)	> 100 µM (inactive)	> 100 µM (inactive)	69.3 µM (inactive)	26.4 µM (inactive)	> 100 µM (inactive)	> 100 µM (inactive)		> 100 µM (inactive)	> 100 µM (inactive)	> 100 µM (inactive)	> 100 µM (inactive)	> 100 µM (inactive)	> 100 µM (inactive)			
Cc1ccc(S(=O)(=O)N/N=C2\C(=O)C3CC2C(Cl)C3Cl)cc1 (stereo not given)	> 100 µM (inactive)	> 100 µM (inactive)	> 100 µM (inactive)	> 100 µM (inactive)	> 100 µM (inactive)	> 100 µM (inactive)	> 100 µM (inactive)	55 µM (inactive)			> 100 µM (inactive)		> 100 µM (inactive)	> 100 µM (inactive)	> 100 µM (inactive)	> 100 µM (inactive)	> 100 µM (inactive)			
C[n+]1c2ccccc2c(CNC(CS)C(=O)O)c2ccccc21 (stereo not given)	24.4 µM (inactive)	17.5 µM (inactive)	18.8 µM (inactive)	32.7 µM (inactive)	20.4 µM (inactive)	19.2 µM (inactive)		21.7 µM (inactive)	19.7 µM (inactive)	17.8 µM (inactive)	29.6 µM (inactive)	18.4 µM (inactive)	24.4 µM (inactive)	44.5 µM (inactive)	12.4 µM (inactive)		29.8 µM (inactive)			
C#CC1(O)CCC2C3CCc4cc(Oc5nc(F)nc(-c6c7ccccc7c7n6CCS7)n5)ccc4C3CC[C@@]21C (stereo not given in full)	11 µM (inactive)	12.1 µM (inactive)	29.2 µM (inactive)	24.6 µM (inactive)	29.2 µM (inactive)	29 µM (inactive)	21.1 µM (inactive)	12.2 µM (inactive)	15.1 µM (inactive)	4.37 µM (inactive)	28.8 µM (inactive)	15.7 µM (inactive)	17.9 µM (inactive)	> 100 µM (inactive)	26.9 µM (inactive)		34 µM (inactive)			
NC(=O)C(=O)Cc1nc2ccccc2s1	> 100 µM (inactive)	> 100 µM (inactive)		> 100 µM (inactive)	> 100 µM (inactive)	> 100 µM (inactive)	> 100 µM (inactive)	68.2 µM (inactive)	> 100 µM (inactive)	> 100 µM (inactive)		> 100 µM (inactive)	> 100 µM (inactive)	> 100 µM (inactive)	> 100 µM (inactive)	> 100 µM (inactive)	> 100 µM (inactive)			
CC(=O)c1sc2[n+](c1C)C(=O)/C(=C\c1ccccc1Cl)S2	27.6 µM (inactive)	20.7 µM (inactive)	18.3 µM (inactive)	20.3 µM (inactive)		14.9 µM (inactive)	16.7 µM (inactive)	26.8 µM (inactive)	17.3 µM (inactive)	18.2 µM (inactive)	24.5 µM (inactive)	21.8 µM (inactive)	18 µM (inactive)	24.3 µM (inactive)	22.4 µM (inactive)	18 µM (inactive)	13.3 µM (inactive)	18.7 µM (inactive)	19.4 µM (inactive)	21 µM (inactive)
CC1=N/C(=C\c2cccc3ccccc23)C(=O)O1	> 100 µM (inactive)	> 100 µM (inactive)	> 100 µM (inactive)	> 100 µM (inactive)	> 100 µM (inactive)	> 100 µM (inactive)	> 100 µM (inactive)		> 100 µM (inactive)	> 100 µM (inactive)		> 100 µM (inactive)		> 100 µM (inactive)	> 100 µM (inactive)					
O=C(CC1Sc2ccccc2NC1=O)Nc1ccc([N+](=O)[O-])cc1[N+](=O)[O-] (stereo not given)	15.6 µM (inactive)	16 µM (inactive)	17.4 µM (inactive)	19.5 µM (inactive)	26.7 µM (inactive)	26.7 µM (inactive)	17.7 µM (inactive)	20 µM (inactive)	21.7 µM (inactive)				16.3 µM (inactive)	29.2 µM (inactive)	20.1 µM (inactive)	16.2 µM (inactive)	11.9 µM (inactive)			
CC1=CC(=O)c2c(O)cccc2C1=O [PLUMBAGIN]	0.208 µM (active)	1.66 µM (inactive)	1.78 µM (inactive)	12 µM (inactive)		1.86 µM (inactive)	1.82 µM (inactive)	5.51 µM (inactive)	6.17 µM (inactive)	1.57 µM (inactive)	1.83 µM (inactive)	1.91 µM (inactive)	1.03 µM (active)	1.94 µM (inactive)	0.236 µM (active)	1.81 µM (inactive)	6.55 µM (inactive)	1.65 µM (inactive)	1.72 µM (inactive)	1.76 µM (inactive)
